Test results published in US8785460B2, “Tricyclic compounds and use thereof” (Takeda Pharmaceutical Company Limited, priority 2008, dated 2014).
pIC50: −log10 of the molar value.

Tests used:
human CRF1 receptor = target: T1, human CRF1 receptor (Homo sapiens, UniProt P34998); test: Measurement of CRF Binding Inhibitory Rate (receptor binding experiment with 125I-CRF); details: human CRF1 receptor expressing CHO cellular membrane fraction, 50 pM 125I-CRF, room temperature 1.5 hr, 0.05 nM to 10 μM of compound; read-out: IC50 values (CRF binding inhibition)
T1 construct: expressed in transfected cells; host or cells: CHO cells (membrane fraction)
T1 sequence (P34998 24-415): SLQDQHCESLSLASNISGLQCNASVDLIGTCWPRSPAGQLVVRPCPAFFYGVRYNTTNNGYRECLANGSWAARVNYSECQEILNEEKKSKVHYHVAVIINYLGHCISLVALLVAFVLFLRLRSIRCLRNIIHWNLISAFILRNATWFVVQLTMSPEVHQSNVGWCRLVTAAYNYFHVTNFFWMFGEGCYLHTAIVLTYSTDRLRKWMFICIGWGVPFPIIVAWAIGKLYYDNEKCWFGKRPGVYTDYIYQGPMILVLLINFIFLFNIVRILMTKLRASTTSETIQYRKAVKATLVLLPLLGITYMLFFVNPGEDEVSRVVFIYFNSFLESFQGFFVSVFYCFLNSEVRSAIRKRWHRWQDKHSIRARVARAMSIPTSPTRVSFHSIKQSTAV

Question: With `CCNC(=O)NC(CC)c1ccc(Cl)c2nc3n(c12)CCCN3c1ccc(Cl)cc1Cl` (stereo not drawn) [Example 374, 1-{1-[9-Chloro-1-(2,4-dichlorophenyl)-1,2,3,4-tetrahydropyrimido[1,2-a]benzimidazol-6-yl]propyl}-3-ethylurea] as the compound, how does the pIC50 (human CRF1 receptor) read?
Answer: > 6.00

Question: And the melting point?
Answer: 250 to 252 °C

Question: With `CCC(F)c1ccc(Cl)c2nc3n(c12)CCCN3c1ccc(Cl)cc1Cl` (stereo not drawn) [Example 304, 9-Chloro-1-(2,4-dichlorophenyl)-6-(1-fluoropropyl)-1,2,3,4-tetrahydropyrimido[1,2-a]benzimidazole] as the compound, how does the pIC50 (human CRF1 receptor) read?
Answer: > 6.00

Question: And the melting point?
Answer: 172 to 174 °C

Question: With `Cc1cnc(N2CCCn3c2nc2c(Cl)ccc(C(O)(C4CC4)C4CC4)c23)c(C)n1` [Example 176, [9-Chloro-1-(3,5-dimethylpyrazin-2-yl)-1,2,3,4-tetrahydropyrimido[1,2-a]benzimidazol-6-yl](dicyclopropyl)methanol] as the compound, how does the pIC50 (human CRF1 receptor) read?
Answer: > 6.00

Question: And the melting point?
Answer: 152 to 153 °C

Question: What does the source list for `CCC(OC(C)=O)c1ccc(Cl)c2nc3n(c12)CCCN3c1ccc(C(C)=O)cc1Cl` (stereo not drawn) [Example 250, 1-[1-(4-Acetyl-2-chlorophenyl)-9-chloro-1,2,3,4-tetrahydropyrimido[1,2-a]benzimidazol-6-yl]propyl acetate]?
Answer: pIC50 (human CRF1 receptor): > 6.00; melting point: 183 to 186 °C

Question: Which results are given for `CCCC(OC)c1ccc(Cl)c2nc3n(c12)CCCN3c1ccc(Cl)cc1Cl` (stereo not drawn) [Example 118, 9-Chloro-1-(2,4-dichlorophenyl)-6-(1-methoxybutyl)-1,2,3,4-tetrahydropyrimido[1,2-a]benzimidazole]?
Answer: pIC50 (human CRF1 receptor): > 6.00; melting point: 139 to 140 °C

Question: What does the source list for `CCC(CC)c1ccc(Cl)c2nc3n(c12)CCCCN3c1ccc(OC(F)(F)F)cc1Br` [Example 39, 1-[2-Bromo-4-(trifluoromethoxy)phenyl]-10-chloro-7-(1-ethylpropyl)-2,3,4,5-tetrahydro-1H-[1,3]diazepino[1,2-a]benzimidazole]?
Answer: pIC50 (human CRF1 receptor): > 6.00; melting point: 114 to 117 °C

Question: With `Cc1cc(C#N)ccc1N1CCCn2c1nc1c(Cl)ccc(C(OC(F)F)C(F)(F)F)c12` (stereo not drawn) [Example 325, 4-{9-chloro-6-[1-(difluoromethoxy)-2,2,2-trifluoroethyl]-3,4-dihydropyrimido[1,2-a]benzimidazol-1(2H)-yl}-3-methylbenzonitrile] as the compound, how does the pIC50 (human CRF1 receptor) read?
Answer: > 6.00

Question: What about the melting point of the same compound?
Answer: 195 to 197 °C

Question: With `CCC(OC(C)=O)c1ccc(Cl)c2nc3n(c12)CCCCN3c1ccc(OC)cc1Cl` (stereo not drawn) [Example 334, 1-[10-Chloro-1-(2-chloro-4-methoxyphenyl)-2,3,4,5-tetrahydro-1H-[1,3]diazepino[1,2-a]benzimidazol-7-yl]propyl acetate] as the compound, how does the pIC50 (human CRF1 receptor) read?
Answer: > 6.00

Question: What about the melting point of the same compound?
Answer: 177 to 179 °C

Question: With `CCCC(O)(CCC)c1ccc(Cl)c2nc3n(c12)CCCN3c1ccc(Cl)cc1C(F)(F)F` [Example 129, 4-{9-Chloro-1-[4-chloro-2-(trifluoromethyl)phenyl]-1,2,3,4-tetrahydropyrimido[1,2-a]benzimidazol-6-yl}heptan-4-ol] as the compound, how does the pIC50 (human CRF1 receptor) read?
Answer: > 6.00

Question: And the melting point?
Answer: 200 to 202 °C

Question: With `CCC(CC)c1ccc(Cl)c2nc3n(c12)CC(C)N3c1cnc(N(C)C)cc1C` (stereo not drawn) [Example 78, 5-[8-Chloro-5-(1-ethylpropyl)-2-methyl-2,3-dihydro-1H-imidazo[1,2-a]benzimidazol-1-yl]-N,N,4-trimethylpyridin-2-amine] as the compound, how does the pIC50 (human CRF1 receptor) read?
Answer: > 6.00

Question: And the melting point?
Answer: 204 to 206 °C

Question: With `CCC(CC)c1ccc(Cl)c2nc3n(c12)CCCCN3c1ccc(Cl)cc1` [Example 23, 10-Chloro-1-(4-chlorophenyl)-7-(1-ethylpropyl)-2,3,4,5-tetrahydro-1H-[1,3]diazepino[1,2-a]benzimidazole] as the compound, how does the pIC50 (human CRF1 receptor) read?
Answer: > 6.00

Question: And the melting point?
Answer: 133 to 135 °C

Question: With `CCC(CC)c1ccc(Cl)c2nc3n(c12)CCCCN3c1ccc(C)cc1Br` [Example 31, 1-(2-Bromo-4-methylphenyl)-10-chloro-7-(1-ethylpropyl)-2,3,4,5-tetrahydro-1H-[1,3]diazepino[1,2-a]benzimidazole] as the compound, how does the pIC50 (human CRF1 receptor) read?
Answer: > 6.00

Question: And the melting point?
Answer: 152 to 155 °C

Question: What does the source list for `CCOC(CC)c1ccc(Cl)c2nc3n(c12)CCCN3c1cnc(N(C)C)cc1C` (stereo not drawn) [Example 156, 5-[9-Chloro-6-(1-ethoxypropyl)-3,4-dihydropyrimido[1,2-a]benzimidazol-1(2H)-yl]-N,N,4-trimethylpyridin-2-amine]?
Answer: pIC50 (human CRF1 receptor): > 6.00; melting point: 179 to 180 °C

Question: With `CCC(NC(=O)OC)c1ccc(Cl)c2nc3n(c12)CCCN3c1c(Cl)cc(Cl)cc1Cl` (stereo not drawn) [Example 410, Methyl {1-[9-chloro-1-(2,4,6-trichlorophenyl)-1,2,3,4-tetrahydropyrimido[1,2-a]benzimidazol-6-yl]propyl}carbamate] as the compound, how does the pIC50 (human CRF1 receptor) read?
Answer: > 6.00

Question: What about the melting point of the same compound?
Answer: 231 to 233 °C

Question: With `COc1nc(C)c(N2CCCn3c2nc2c(Cl)ccc(C(OCC(F)(F)F)C4CC4)c23)c(C)n1` (stereo not drawn) [Example 189, 9-Chloro-6-[cyclopropyl(2,2,2-trifluoroethoxy)methyl]-1-(2-methoxy-4,6-dimethylpyrimidin-5-yl)-1,2,3,4-tetrahydropyrimido[1,2-a]benzimidazole] as the compound, how does the pIC50 (human CRF1 receptor) read?
Answer: > 6.00

Question: And the melting point?
Answer: 225 to 227 °C

Question: With `CCC(CC)c1ccc(Cl)c2nc3n(c12)CCCCN3c1ccc(N(C)C)cc1C` [Example 51, 4-[10-Chloro-7-(1-ethylpropyl)-2,3,4,5-tetrahydro-1H-[1,3]diazepino[1,2-a]benzimidazol-1-yl]-N,N,3-trimethylaniline] as the compound, how does the pIC50 (human CRF1 receptor) read?
Answer: > 6.00

Question: And the melting point?
Answer: 174 to 175 °C

Question: With `CCC(OC(C)=O)c1ccc(Cl)c2nc3n(c12)CCCCN3c1ncc(Cl)cc1Cl` (stereo not drawn) [Example 329, 1-[10-Chloro-1-(3,5-dichloropyridin-2-yl)-2,3,4,5-tetrahydro-1H-[1,3]diazepino[1,2-a]benzimidazol-7-yl]propyl acetate] as the compound, how does the pIC50 (human CRF1 receptor) read?
Answer: > 6.00

Question: And the melting point?
Answer: 158 to 160 °C

Question: With `CCC(CC)(OC)c1ccc(Cl)c2nc3n(c12)CCCN3c1ccc(Cl)cc1Cl` [Example 110, 9-Chloro-1-(2,4-dichlorophenyl)-6-(1-ethyl-1-methoxypropyl)-1,2,3,4-tetrahydropyrimido[1,2-a]benzimidazole] as the compound, how does the pIC50 (human CRF1 receptor) read?
Answer: > 6.00

Question: And the melting point?
Answer: 124 to 125 °C

Question: With `CCC(CC)c1ccc(Cl)c2nc3n(c12)CCCCN3c1cnc(N2CCCC2)cc1C` [Example 29, 10-Chloro-7-(1-ethylpropyl)-1-(4-methyl-6-pyrrolidin-1-ylpyridin-3-yl)-2,3,4,5-tetrahydro-1H-[1,3]diazepino[1,2-a]benzimidazole] as the compound, how does the pIC50 (human CRF1 receptor) read?
Answer: > 6.00

Question: And the melting point?
Answer: 160 to 161 °C

Question: What does the source list for `Cc1nc(C2CC2)nc(C)c1N1CCCn2c1nc1c(Cl)ccc(C(OC(F)F)C(F)(F)F)c12` (stereo not drawn) [Example 218, 9-Chloro-1-(2-cyclopropyl-4,6-dimethylpyrimidin-5-yl)-6-[1-(difluoromethoxy)-2,2,2-trifluoroethyl]-1,2,3,4-tetrahydropyrimido[1,2-a]benzimidazole]?
Answer: pIC50 (human CRF1 receptor): > 6.00; melting point: 191 to 193 °C

Question: With `Cc1cc(C#N)ccc1N1CCCn2c1nc1c(Cl)ccc(C(OCC(F)(F)F)C3CC3)c12` (stereo not drawn) [Example 402, 4-{9-Chloro-6-[cyclopropyl(2,2,2-trifluoroethoxy)methyl]-3,4-dihydropyrimido[1,2-a]benzimidazol-1(2H)-yl}-3-methylbenzonitrile] as the compound, how does the pIC50 (human CRF1 receptor) read?
Answer: > 6.00

Question: And the melting point?
Answer: 207 to 209 °C

Question: What does the source list for `COc1ccc(N2CCCn3c2nc2c(Cl)ccc(C(OCC(F)F)C4CC4)c23)c(C)n1` (stereo not drawn) [Example 278, 9-Chloro-6-[cyclopropyl(2,2-difluoroethoxy)methyl]-1-(6-methoxy-2-methylpyridin-3-yl)-1,2,3,4-tetrahydropyrimido[1,2-a]benzimidazole]?
Answer: pIC50 (human CRF1 receptor): > 6.00; melting point: 124 to 126 °C

Question: With `CCC(OC(C)=O)c1ccc(Cl)c2nc3n(c12)CCCN3c1ccc(C(C)(C)O)cc1Cl` (stereo not drawn) [Example 252, 1-{9-Chloro-1-[2-chloro-4-(1-hydroxy-1-methylethyl)phenyl]-1,2,3,4-tetrahydropyrimido[1,2-a]benzimidazol-6-yl}propyl acetate] as the compound, how does the pIC50 (human CRF1 receptor) read?
Answer: > 6.00

Question: And the melting point?
Answer: 184 to 186 °C

Question: With `OC(c1ccc(Cl)c2nc3n(c12)CCCN3c1ccc(Cl)cc1Cl)C1CC1` (stereo not drawn) [Example 113, [9-Chloro-1-(2,4-dichlorophenyl)-1,2,3,4-tetrahydropyrimido[1,2-a]benzimidazol-6-yl](cyclopropyl)methanol] as the compound, how does the pIC50 (human CRF1 receptor) read?
Answer: > 6.00

Question: What about the melting point of the same compound?
Answer: 223 to 224 °C

Question: With `CCC(O)c1ccc(Cl)c2nc3n(c12)CCCN3c1ccc(Cl)cc1C(F)(F)F` (stereo not drawn) [Example 131, 1-{9-Chloro-1-[4-chloro-2-(trifluoromethyl)phenyl]-1,2,3,4-tetrahydropyrimido[1,2-a]benzimidazol-6-yl}propan-1-ol] as the compound, how does the pIC50 (human CRF1 receptor) read?
Answer: > 6.00

Question: And the melting point?
Answer: 220 to 222 °C

Question: Which results are given for `CCC(CC)c1ccc(Cl)c2nc3n(c12)CCCCN3c1ccc(C)cc1C#N` [Example 36, 2-[10-Chloro-7-(1-ethylpropyl)-2,3,4,5-tetrahydro-1H-[1,3]diazepino[1,2-a]benzimidazol-1-yl]-5-methylbenzonitrile]?
Answer: pIC50 (human CRF1 receptor): > 6.00; melting point: 176 to 180 °C

Question: What does the source list for `COC(c1ccc(Cl)c2nc3n(c12)CCCN3c1ccc(Cl)cc1Cl)(C1CC1)C1CC1` [Example 111, 9-Chloro-1-(2,4-dichlorophenyl)-6-[dicyclopropyl(methoxy)methyl]-1,2,3,4-tetrahydropyrimido[1,2-a]benzimidazole]?
Answer: pIC50 (human CRF1 receptor): > 6.00; melting point: 99 to 100 °C
